Patent US20110112044A1, “NOVEL USES OF D-MANNOPYRANOSE DERIVATIVES” (CENTRE NATIONAL DE LA RECHERCHE SCIENTIFIQUE, priority 2008, published 2011)

tested on: chorioallantoic membrane (CAM) of chick embryo; assay: Chick embryo chorioallantoic membrane (CAM) angiogenesis assay; type: in vivo, chick (white Leghorn); conditions: 20 μL of 6 mg/mL in PBS on nitrocellulose disk placed on CAM on 7th day, observed 12th day, estimated visually
From the text: In this example, the activity of mannose-6-phosphate (M6P) and of the compounds of formulae (I-1), (I-2) and (I-3) as prepared in examples 1 to 3 above, respectively, on the inhibition of angiogenesis was studied, in comparison with three D-mannopyranoside (DM) derivatives having pro-angiogenic activity and thus not forming part of the invention (DM1: methyl 7-amino-6,7-dideoxy-α-D-mannopyranoside; DM2: methyl 6-azido-6-deoxy-α-D-mannopyranoside and DM3: methyl 7-disodiumphosphonato-6,7-dideoxy-α-D-mannohepto-pyranoside). This study was performed on chick embryos according to the method described by Ribatti D. et al., Nat. Protoc., 2006, 1(1), 85-91 with a few minor modifications.
This study was performed on the chorioallantoic membrane (CAM) of chick embryo. The CAM is an extra-embryonic membrane formed on the fourth day of incubation by fusion of the chorion and of the allantois. It allows gas exchange between the chick embryo and the extra-embryonic environment up to the time of birth. This CAM is composed of a very thick capillary network that forms a continuous surface in direct contact with the shell. Rapid capillary proliferation of this membrane continues up to the 11th day; the mitotic index then decreases rapidly and the vascular system reaches its final organization on the 18th day, just before birth (hatching on the 21st day).
Fertilized eggs of a hen of the white Leghorn race were placed in an incubator from the start of embryogenesis, where they were kept under constant humidity at a temperature of 38° C. On the second day of incubation, a window was opened in the shell after removal of 2 to 3 mL of albumin in order to detach the CAM from the shell. The window was then sealed with adhesive tape and the egg was returned to the incubator to continue its development up to the date of the experiment. On the 7th day, pieces of inert synthetic polymers (nitrocellulose filter disks 0.4 cm in diameter) were soaked with 20 μL of each of the solutions of the test compounds (6 mg/mL in PBS) and then positioned on the CAM. The impact of the test substances on the angiogenesis was then observed on the 12th day and the quantitative evaluation of the pro- or anti-angiogenic response was estimated visually.

**Q.** For `CO[C@H]1O[C@H](CCN)[C@@H](O)[C@H](O)[C@@H]1O` [DM1, methyl 7-amino-6,7-dideoxy-α-D-mannopyranoside, reference compound], which “effect on the vascularization of chick embryos” value (from here on “effect on the vascularization”) is on record?
**A.** The value was “activating effect”.

**Q.** Which “effect on the vascularization” value does the source give for `CO[C@H]1O[C@H](CCP(=O)([O-])[O-])[C@@H](O)[C@H](O)[C@@H]1O.[Na+].[Na+]` [DM3, methyl 7-disodiumphosphonato-6,7-dideoxy-α-D-mannohepto-pyranoside, reference compound] here?
**A.** Its value is “activating effect”.

**Q.** For `CO[C@H]1O[C@H](CCS(=O)(=O)[O-])[C@@H](O)[C@H](O)[C@@H]1O.[Na+]` [(I-1), Methyl 6,7-Dideoxy-7-Sodiumsulfonato-α-d-mannoheptopyranoside], which “effect on the vascularization” value is on record?
**A.** The value was “inhibitory effect”.

**Q.** For `CO[C@H]1OC(CC(=O)O)[C@@H](O)C(O)C1O` (stereo partly drawn) [(I-2), (Methyl 6,7-Dideoxy-α-D-Mannoheptopyranosine)uronic acid], which “effect on the vascularization” value is on record?
**A.** The value was “inhibitory effect”.

**Q.** Which “effect on the vascularization” value does the source give for `CO[C@H]1OC(CC(C(=O)O)C(=O)O)[C@@H](O)C(O)C1O` (stereo partly drawn) [(I-3), methyl 6-deoxy-6-malonate-α-D-Mannopyranoside] here?
**A.** The value was “inhibitory effect”.

**Q.** How did the “effect on the vascularization” value turn out when `COC1O[C@H](COP(=O)(O)O)[C@@H](O)[C@H](O)[C@@H]1O` (stereo partly drawn) [M6P, methyl D-mannopyranoside 6-phosphate] was run?
**A.** The value was “inhibitory effect”.

**Q.** With `CO[C@H]1O[C@H](CN=[N+]=[N-])[C@@H](O)[C@H](O)[C@@H]1O` [DM2, methyl 6-azido-6-deoxy-α-D-mannopyranoside, reference compound] as the molecule, how does the “effect on the vascularization” value read?
**A.** The value was “activating effect”.
